Assay results: EP1272659B1, “EARLY DIAGNOSIS OF M[…] HUMAN BEINGS” (Università degli Studi di Roma " Tor Vergata", priority 2000, dated 2001)

Target: T1, FAAH (anandamide hydrolase; arachidonoylethanolamide amidohydrolase, EC 3.5.1.4) in human lymphocyte homogenates (Homo sapiens, UniProt O00519)
T1 construct: Lymphocytes were purified from peripheral blood by gradient centrifugation; from tissue; host or cells: human peripheral blood lymphocytes of pregnant women, homogenate
T1 sequence (O00519 1-579): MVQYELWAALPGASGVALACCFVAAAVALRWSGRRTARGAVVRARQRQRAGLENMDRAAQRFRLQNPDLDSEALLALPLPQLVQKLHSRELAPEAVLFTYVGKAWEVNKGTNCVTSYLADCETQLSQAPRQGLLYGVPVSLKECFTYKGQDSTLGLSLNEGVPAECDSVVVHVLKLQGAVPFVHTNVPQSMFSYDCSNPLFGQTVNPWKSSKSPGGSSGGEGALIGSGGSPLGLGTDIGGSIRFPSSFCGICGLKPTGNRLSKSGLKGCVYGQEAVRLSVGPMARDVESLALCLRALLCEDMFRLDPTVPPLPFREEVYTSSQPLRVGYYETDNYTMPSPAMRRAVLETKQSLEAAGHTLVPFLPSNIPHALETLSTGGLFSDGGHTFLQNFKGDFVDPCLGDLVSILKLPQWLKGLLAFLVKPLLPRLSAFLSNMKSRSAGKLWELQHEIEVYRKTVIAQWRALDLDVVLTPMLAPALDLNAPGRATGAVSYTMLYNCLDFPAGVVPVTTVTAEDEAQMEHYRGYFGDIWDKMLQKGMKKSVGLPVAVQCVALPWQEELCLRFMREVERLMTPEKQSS
Experiment: Kinetic analysis of FAAH activity in human lymphocyte homogenates: release of [1-14C]arachidonic acid from [1-14C]anandamide, reversed phase HPLC
Assay type: biochemical
Conditions: <8 weeks of pregnancy; for apparent maximum velocity (Vmax): lymphocyte homogenates
Procedure: The activity of FAAH (arachidonoylethanolamide amidohydrolase, EC 3.5.1.4) in human lymphocyte homogenates (20 µg/test) was determined by measuring the release of [1-^14C] arachidonic acid from [1-^14C] anandamide (NEN DuPont de Nemours, 52 mCi/mmol), using reversed phase high performance liquid cromatography as reported in Maccarrone et al. 1998.
The difference in FAAH activity between the group of 43 subjects with normal pregnancy (mean value = 169.60 ± 30.20 pmol.min^-1.mg protein^-1) and the group of 7 women who aborted (mean value 60.43 ± 29.34 pmol.min^-1.mg protein^-1) was statistically significant (P<0.0001 by the Mann-Whitney test). Embryonic death occurred approximately 10 days later, i.e. at 8 to 11 weeks for the subjects <7- to <10-week pregnant, respectively. […] On the other hand, the bell-shaped curve found for FAAH activity in normal subjects is frequently observed with biological indicators of the first trimester of pregnancy, such as the beta-subunit of human chorionic gonadotropin (Goldstein in Obstet Gynecol 1994).
FAAH (arachidonoylethanolamide amidohydrolase, EC 3.5.1.4) activity in human lymphocyte homogenates (20 µg/test) was determined by measuring the release of [1-^14C]arachidonic acid from [1-^14C] anandamide (NEN DuPont de Nemours, 52 mCi/mmol), using reverse phase high performance liquid cromatography as reported (Maccarrone et al. 1998). It has to be pointed out that the use of [^3H] anandamide, measuring the release of [^3H]arachidonic acid, yields the same results.

Q: How did the “apparent maximum velocity (Vmax)” value (subjects who miscarried) turn out when `CCCCC/C=C\C/C=C\C/C=C\C/C=C\CCCC(=O)NCCO` [anandamide, arachidonoylethanolamide] was run?
A: 75 ± 8 pmol.min^-1.mg protein^-1

Q: And the “apparent maximum velocity (Vmax)” value (subjects with normal gestation)?
A: 187 ± 20 pmol.min^-1.mg protein^-1

Q: And the Km (read-out: apparent Michaelis-Menten constant (Km), lymphocyte homogenates (20 µg/test), same value for subjects with normal gestation and those who miscarried)?
A: 8 ± 1 µM
